# Data reported in PMC4426631, “Insect antimicrobial peptides show potentiating functional interactions against Gram-negative bacteria” (Proceedings of the Royal Society B: Biological Sciences, 2015).
# “Also recorded” adds a separate entry of the source. Cf = 5(6)-carboxyfluorescein
# Tests used:
# E. coli strain D22 = test system: E. coli strain D22; parameters: method as in PMID 9219367; details: E. coli strain D22, which has a defective cell envelope; ref [46]; cited from earlier work
# Text: In the original report, the authors used E. coli strain D22, which has a defective cell envelope.
# E. coli JM83 cells = experiment: Atomic force microscopy imaging of bacterial cells; type: cell-based; details: 20 µM abaecin, 1.5 h, 37°C
# Experimental: Bacteria were prepared for imaging as previously described (see electronic supplementary material). The data were analysed with NANOSCOPE […] software v. 1.40 (Veeco, USA). Three fields on each mica disc were imaged. Three-dimensional images and section profiles were prepared using WSXM v. 5.0 software. The roughness values were measured over the entire bacterial cell surface on 3 × 3 µm^2 areas. The average surface root mean square (RMS) roughness was calculated from 25 fields (300 × 300 nm^2). The data were analysed using […] v. 6 (StatSoft, Inc., Tulsa, OK, USA). Statistical significance was determined by ANOVA (Tukey's honestly significant difference test). […]
# 5 μM h ymenopt aecin. […] Th e cell surface was imaged in Anal ytical Labo rator y, Facult y of Chemistry, UMCS, Lublin, Poland using a NanoScope V AFM (Veeco, USA. All measurements were carri ed out in “Peak Force QNM” mode usin g an NSG 30 silicon tip with a spring constant of 20 N/m (NT-MDT, Russia). The data were an al yzed wi th Nanoscope Anal ysis software v1.40 (Veeco, USA). Three fields on each mica disk were imaged. Three dimensional images and section profiles were prepared using WSxM v5.0 software. The roughness values were measured over the entire bacterial cell surface on 3×3 µm2 areas. The average surface root-mean-square (RMS) roughness was calculated from 25 fields (300×300 nm2). […]
# E. coli 498 = experiment: Bacteriostatic growth-rate dose-response assay, E. coli 498; type: cell-based; details: abaecin in combination with hymenoptaecin
# Experimental: (§1) Initial coarse-level growth inhibition assays were carried out with concentrations of peptides up to 200 μM. Further assays of growth rates (bacteriostatic activity) and cell viability (bactericidal activity) were carried out on a finer scale. […] Growth rates were derived from spline-fitted growth curves to optical density (OD) data, while cell viability was assessed by plating cultures and counting colony-forming units after 18 h. Dose–response curves were fitted to both the bacteriostatic and bactericidal data with Markov Chain Monte Carlo parameter optimization (further details in electronic supplementary material). […]
# v) Coarse growth inhibition assays. […]
# The assa ys were carried out in 96-well plates (Griener Bio On e, Frick enh ausen, Germ an y) in an Eon™ Microplate Spectrophotometer (BioTek Instruments, VT, USA) for 16 h while r eco rding of changes in the OD600 at 20- min intervals. […] The AMPs used inthis assay are sh own in Tables S1and S4. vi) Dose response curv e quantif ication […]
# (§2) 1.25, 2.5, 5, 10, and 20 μM) in rows, and 10 µl volumes of hymenoptaecin (final concentrations of 0, 0.625, 1.25, 2.5, 5, and 10 μM) in columns. […] Th e OD600 was measured ever y hour for 12 consecutive hours using a SpectraMax M2e microplate reader (Molecular Devices, Sunnyvale, USA). […]
# Cell viability. […] Bacteria were grown for 18 h with AMPs before the number of viable cells was assessed. […]
# E. coli strain D31 = experiment: Coarse growth inhibition assay, E. coli strain D31; type: cell-based
# Experimental: as §1
# v) Coarse growth inhibition assays.
# Bact eria in mid-logarithmic phase were used for all growth inhibition assays. The initial OD600 for all assa ys was set to 0.001 to ensure the full contact of each b acteri al cell with added AMPs.
# The assa ys were carried out in 96-well plates (Griener Bio On e, Frick enh ausen, Germ an y) in an Eon™ Microplate Spectrophotometer (BioTek Instruments, VT, USA) for 16 h while r eco rding of changes in the OD600 at 20- min intervals. For each assa y, a control culture was included with medium onl y. The AMPs used inthis assay are sh own in Tables S1and S4. vi) Dose response curv e quantif ication
# Growth inhibition assay. E. coli cells (DSM 498) wer e grown in Muller-Hinton broth (Sigma-Aldrich) for 14 h at 30 °C and count ed using a FastRead 102 counting cham ber ( Immune S yst ems, UK). The suspension w as adjusted in fresh mediu m to achieve a cell density of 5 x 104 per 80 µl. […]
# as §2
# Cell viability. […] Bacteria were grown for 18 h with AMPs before the number of viable cells was assessed. […] Colony-forming units (CFUs), each representing a viable cell from the culture, were counted at a dilution where each individual CFU could be distinguished.
substance,measurement,setting,value
"abaecin: proline-rich peptide abaecin, species version not specified at the place (Cf-FVPYNPPRPGQSKPFPSFPGHGPFNPKIQWPYPLPNPGH-NH2)",antibacterial activity,E. coli strain D22,antibacterial activity was demonstrated
same,"cell morphology and surface (AFM), abaecin alone",E. coli JM83 cells,"smoother than the control cells; also recorded: granules and grooves were visible although less pronounced, and there were fewer flagella"
same,"cell morphology and surface (AFM), abaecin alone",E. coli JM83 cells; listed as Abaecin,no significant impact on gross morphology
same,effect of abaecin on the MIC of hymenoptaecin,E. coli 498,reduce the minimal inhibitory concentration of hymenoptaecin
same,"antibacterial activity, abaecin alone","E. coli strain D31; E. coli D31, 20 µM (figure 1a) to 200 µM (data not shown), OD600, 16 h",unable to detect any antibacterial activity
same,"antibacterial activity, abaecin alone","E. coli strain D31; E. coli, tested alone at concentrations of up to 200 μM",no detectable activity
same,"impact on bacterial growth or survival, abaecin alone",E. coli strain D31; even at a concentration of 200 µM,no impact on bacterial growth or survival
